Experimental data published in patent publication US20220388979A1, “QUINOLINE DERIVATIVES AS PROTEIN KINASE INHIBITORS” (B.C.I. PHARMA, priority 2019, published 2022).
Where two headings read alike, the source gives them in different places.

Experiments:
CSF1R [1] = biological target: T1, CSF1R (Homo sapiens, UniProt P07333); assay: HEK-CSF1R-STAT5-Luc reporter assay, M-CSF stimulated; assay type: cell-based; parameters: host or cells: HEK293T (ATCC CRL-3216); conditions: for IC50: 600 ng/ml M-CSF, 24 h, luciferase, read-out: HEK-CSF1R-STAT5 IC 50
T1 sequence (P07333 20-972): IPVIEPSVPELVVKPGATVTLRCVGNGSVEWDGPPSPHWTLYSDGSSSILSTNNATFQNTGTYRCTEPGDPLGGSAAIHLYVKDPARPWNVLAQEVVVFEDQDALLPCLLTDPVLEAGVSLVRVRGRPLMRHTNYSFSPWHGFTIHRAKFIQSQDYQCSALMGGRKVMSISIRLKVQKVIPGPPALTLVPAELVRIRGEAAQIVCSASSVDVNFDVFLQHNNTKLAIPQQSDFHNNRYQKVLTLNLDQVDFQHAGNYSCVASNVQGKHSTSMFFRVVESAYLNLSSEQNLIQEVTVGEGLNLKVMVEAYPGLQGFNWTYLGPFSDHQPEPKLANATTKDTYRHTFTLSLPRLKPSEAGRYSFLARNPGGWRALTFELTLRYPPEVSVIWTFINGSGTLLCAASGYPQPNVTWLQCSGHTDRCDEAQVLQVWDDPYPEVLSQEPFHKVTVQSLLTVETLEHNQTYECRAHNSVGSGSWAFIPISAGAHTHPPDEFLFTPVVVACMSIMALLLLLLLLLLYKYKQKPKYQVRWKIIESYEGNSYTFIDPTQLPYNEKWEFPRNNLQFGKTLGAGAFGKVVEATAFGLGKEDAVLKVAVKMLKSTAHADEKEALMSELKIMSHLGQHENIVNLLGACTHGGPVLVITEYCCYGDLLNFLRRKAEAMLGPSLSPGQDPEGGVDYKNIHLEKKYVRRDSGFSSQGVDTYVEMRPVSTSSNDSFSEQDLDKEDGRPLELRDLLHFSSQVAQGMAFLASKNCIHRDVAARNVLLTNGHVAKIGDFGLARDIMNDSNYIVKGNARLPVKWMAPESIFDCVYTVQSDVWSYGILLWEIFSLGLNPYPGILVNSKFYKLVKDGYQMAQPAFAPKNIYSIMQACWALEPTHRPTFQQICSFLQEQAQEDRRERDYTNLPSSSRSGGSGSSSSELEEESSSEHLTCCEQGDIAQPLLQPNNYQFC
Experimental: HEK-CSF1R-STAT5-Luc: Exponential growing HEK293T cells (ATCC® CRL-3216™), ectopically expressing human CSF1R receptor (Origene) and five copies of a STAT5 response element (STAT5 RE, promega) that drives transcription of the luciferase reporter were seeded at 5·10^3 per 20 μl of complete DMEM medium. The next day, 2.25 μL of test compound dilution were added to each well and stimulated with 600 ng/ml of M-CSF. The plates were incubated for 24 h at 37° C., 5% CO2. Unstimulated and stimulated cells served as reference for […]. At the end of incubation 25 μl of Steady-Glo® Luciferase Assay System (Promega) were added after 5 min of lysis, luminescence was measured on microplate reader (Envision 2105, Perkinelmer).
(§1) IC50 were measured and experiments were performed at least in duplicate.
(§2) Cell-based assays of compounds CC395-CC397, depicted above, against M-NFS-60 and HEK-CSF1R have been performed following the procedures described in example 29 and 30 and compared with their quinoline analogues 32, 44 and 108.

M-NFS-60 cells = assay: Cell proliferation in M-NFS-60 leukemia cell line (WST-1); assay type: cell-based; conditions: for IC50: cell proliferation, 72 h, WST-1, read-out: M-NFS-60 IC 50
Experimental: M-NFS-60: Exponential growing M-NFS-60 cells (ATCC, CRL-1838) were seeded at […]per 200 μl of complete medium with beta-mercaptoethanol and M-CSF (62 ng/mL) or IL34 (500 ng/mL). Twenty μL of test compound dilution were added to each well and the plates were incubated for 72 h at 37° C., 5% CO2. Untreated cells and positive control (0.5% triton X-100, for the last 15 min) served as reference for maximum and minimum viability. At the end of incubation 100 μl of supernatant were removed and replaced by 10 μl of WST-1 solution (Cell Proliferation Reagent WST-1, Roche Applied Science). After 3 h incubation at 37° C., 5% CO2, optical densities were measured at 450 nm and 620 nm for the background on microplate reader (Envision 2105, Perkinelmer).
as §1, §2

Kit = Kit (Homo sapiens, UniProt P10721); assay: Z'-Lyte biochemical kinase assay (SelectScreen), Kit; conditions: at 50 nM, in duplicate
Sequence of Kit (P10721 26-976): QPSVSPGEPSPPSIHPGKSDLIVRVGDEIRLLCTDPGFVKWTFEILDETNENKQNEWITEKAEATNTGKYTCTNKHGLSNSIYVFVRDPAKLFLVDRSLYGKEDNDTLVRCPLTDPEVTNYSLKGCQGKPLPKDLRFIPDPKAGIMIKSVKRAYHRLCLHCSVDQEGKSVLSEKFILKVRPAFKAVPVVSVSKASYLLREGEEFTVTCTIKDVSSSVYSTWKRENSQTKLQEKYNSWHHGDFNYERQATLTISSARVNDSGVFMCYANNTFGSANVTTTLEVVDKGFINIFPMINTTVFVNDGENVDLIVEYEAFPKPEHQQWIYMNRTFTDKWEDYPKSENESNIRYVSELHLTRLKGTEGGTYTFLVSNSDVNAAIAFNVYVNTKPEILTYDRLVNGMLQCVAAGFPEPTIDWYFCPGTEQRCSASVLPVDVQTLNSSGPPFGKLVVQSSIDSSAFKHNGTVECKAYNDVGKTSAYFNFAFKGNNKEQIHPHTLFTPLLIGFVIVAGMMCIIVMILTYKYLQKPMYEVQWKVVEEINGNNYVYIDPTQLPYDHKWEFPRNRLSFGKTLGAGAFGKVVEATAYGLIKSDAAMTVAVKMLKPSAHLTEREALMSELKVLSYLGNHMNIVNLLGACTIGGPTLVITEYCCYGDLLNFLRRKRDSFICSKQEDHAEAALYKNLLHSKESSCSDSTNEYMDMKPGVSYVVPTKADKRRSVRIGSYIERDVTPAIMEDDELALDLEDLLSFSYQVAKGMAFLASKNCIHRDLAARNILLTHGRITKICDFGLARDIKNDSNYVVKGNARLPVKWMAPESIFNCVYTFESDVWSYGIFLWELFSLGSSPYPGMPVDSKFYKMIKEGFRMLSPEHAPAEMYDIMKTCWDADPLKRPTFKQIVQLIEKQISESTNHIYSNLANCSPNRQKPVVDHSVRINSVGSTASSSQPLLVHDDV
Experimental: (§3) A biochemical assay was performed in order to measure the protein kinase inhibition. The kinase binding assays were performed against different kinases using the SelectScreen Biochemical Kinase Profiling Service® platform (Thermo Fisher Scientific). For all kinases, the Z′-Lyte® biochemical kinase assay technology was used. Inhibitions were measured at 50 nM in duplicate for each compound and are reported in percentage.

PDGFRB = PDGFRB (Homo sapiens, UniProt P09619); assay: Z'-Lyte biochemical kinase assay (SelectScreen), PDGFRB; conditions: at 50 nM, in duplicate
Sequence of PDGFRB (P09619 33-1106): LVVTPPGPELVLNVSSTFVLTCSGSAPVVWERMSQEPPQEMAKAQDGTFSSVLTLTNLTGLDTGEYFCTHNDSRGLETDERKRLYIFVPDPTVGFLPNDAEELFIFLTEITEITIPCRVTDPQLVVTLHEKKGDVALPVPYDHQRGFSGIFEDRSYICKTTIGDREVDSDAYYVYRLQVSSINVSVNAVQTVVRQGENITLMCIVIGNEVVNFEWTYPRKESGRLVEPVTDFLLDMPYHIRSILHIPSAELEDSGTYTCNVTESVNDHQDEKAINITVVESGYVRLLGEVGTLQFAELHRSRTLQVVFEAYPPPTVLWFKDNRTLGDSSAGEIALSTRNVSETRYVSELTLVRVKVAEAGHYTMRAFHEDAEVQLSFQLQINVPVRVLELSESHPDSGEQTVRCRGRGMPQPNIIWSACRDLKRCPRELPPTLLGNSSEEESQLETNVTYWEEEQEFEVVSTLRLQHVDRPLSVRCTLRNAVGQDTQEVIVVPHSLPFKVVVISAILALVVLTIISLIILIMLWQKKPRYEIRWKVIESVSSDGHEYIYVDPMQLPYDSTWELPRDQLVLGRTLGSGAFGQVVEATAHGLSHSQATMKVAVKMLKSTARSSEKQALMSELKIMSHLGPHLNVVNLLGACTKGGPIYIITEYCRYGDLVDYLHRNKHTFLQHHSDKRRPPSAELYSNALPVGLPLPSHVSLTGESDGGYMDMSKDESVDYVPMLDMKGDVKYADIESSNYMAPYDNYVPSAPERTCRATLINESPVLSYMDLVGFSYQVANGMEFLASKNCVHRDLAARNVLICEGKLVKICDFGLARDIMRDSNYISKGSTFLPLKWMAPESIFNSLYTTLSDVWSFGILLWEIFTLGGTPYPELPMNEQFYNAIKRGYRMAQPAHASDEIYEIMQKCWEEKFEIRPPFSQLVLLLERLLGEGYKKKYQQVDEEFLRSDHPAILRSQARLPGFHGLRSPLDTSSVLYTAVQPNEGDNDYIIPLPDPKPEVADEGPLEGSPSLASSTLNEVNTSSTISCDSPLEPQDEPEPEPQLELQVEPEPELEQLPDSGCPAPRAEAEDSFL
Experimental: as §3

PDGFRA = PDGFRA (Homo sapiens, UniProt P16234); assay: Z'-Lyte biochemical kinase assay (SelectScreen), PDGFRA; conditions: at 50 nM, in duplicate
Sequence of PDGFRA (P16234 24-1089): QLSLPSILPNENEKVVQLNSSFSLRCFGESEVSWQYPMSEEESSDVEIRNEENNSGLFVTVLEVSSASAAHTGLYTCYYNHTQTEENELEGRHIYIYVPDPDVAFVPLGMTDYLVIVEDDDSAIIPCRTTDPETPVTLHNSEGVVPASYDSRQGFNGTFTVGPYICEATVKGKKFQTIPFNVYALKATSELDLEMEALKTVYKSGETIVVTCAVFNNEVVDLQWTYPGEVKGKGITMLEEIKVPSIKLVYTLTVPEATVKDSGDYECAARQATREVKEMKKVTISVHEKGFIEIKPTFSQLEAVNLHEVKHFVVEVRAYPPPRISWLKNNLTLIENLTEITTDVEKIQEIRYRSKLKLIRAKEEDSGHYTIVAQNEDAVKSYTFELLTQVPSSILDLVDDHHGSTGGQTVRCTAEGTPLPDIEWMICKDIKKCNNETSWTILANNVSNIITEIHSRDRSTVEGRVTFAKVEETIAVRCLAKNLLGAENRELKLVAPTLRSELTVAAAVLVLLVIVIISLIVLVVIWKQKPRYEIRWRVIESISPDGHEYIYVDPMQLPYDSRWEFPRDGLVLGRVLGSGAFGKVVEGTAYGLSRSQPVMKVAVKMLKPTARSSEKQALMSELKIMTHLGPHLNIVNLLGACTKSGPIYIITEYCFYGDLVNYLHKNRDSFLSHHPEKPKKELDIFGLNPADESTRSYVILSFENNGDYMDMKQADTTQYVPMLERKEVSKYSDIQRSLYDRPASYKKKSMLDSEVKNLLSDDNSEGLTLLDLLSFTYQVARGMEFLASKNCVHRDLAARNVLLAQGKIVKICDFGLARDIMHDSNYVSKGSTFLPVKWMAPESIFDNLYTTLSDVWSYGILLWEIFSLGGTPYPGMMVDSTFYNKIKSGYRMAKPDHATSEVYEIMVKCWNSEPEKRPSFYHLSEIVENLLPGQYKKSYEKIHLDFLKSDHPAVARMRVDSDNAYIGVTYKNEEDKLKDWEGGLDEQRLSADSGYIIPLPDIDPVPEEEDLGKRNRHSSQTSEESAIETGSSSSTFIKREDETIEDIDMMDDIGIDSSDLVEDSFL
Experimental: as §3

FLT3 = biological target: T2, FLT3 (Homo sapiens, UniProt P36888); assay: Z'-Lyte biochemical kinase assay (SelectScreen), FLT3; conditions: at 50 nM, in duplicate
T2 sequence (P36888 27-993): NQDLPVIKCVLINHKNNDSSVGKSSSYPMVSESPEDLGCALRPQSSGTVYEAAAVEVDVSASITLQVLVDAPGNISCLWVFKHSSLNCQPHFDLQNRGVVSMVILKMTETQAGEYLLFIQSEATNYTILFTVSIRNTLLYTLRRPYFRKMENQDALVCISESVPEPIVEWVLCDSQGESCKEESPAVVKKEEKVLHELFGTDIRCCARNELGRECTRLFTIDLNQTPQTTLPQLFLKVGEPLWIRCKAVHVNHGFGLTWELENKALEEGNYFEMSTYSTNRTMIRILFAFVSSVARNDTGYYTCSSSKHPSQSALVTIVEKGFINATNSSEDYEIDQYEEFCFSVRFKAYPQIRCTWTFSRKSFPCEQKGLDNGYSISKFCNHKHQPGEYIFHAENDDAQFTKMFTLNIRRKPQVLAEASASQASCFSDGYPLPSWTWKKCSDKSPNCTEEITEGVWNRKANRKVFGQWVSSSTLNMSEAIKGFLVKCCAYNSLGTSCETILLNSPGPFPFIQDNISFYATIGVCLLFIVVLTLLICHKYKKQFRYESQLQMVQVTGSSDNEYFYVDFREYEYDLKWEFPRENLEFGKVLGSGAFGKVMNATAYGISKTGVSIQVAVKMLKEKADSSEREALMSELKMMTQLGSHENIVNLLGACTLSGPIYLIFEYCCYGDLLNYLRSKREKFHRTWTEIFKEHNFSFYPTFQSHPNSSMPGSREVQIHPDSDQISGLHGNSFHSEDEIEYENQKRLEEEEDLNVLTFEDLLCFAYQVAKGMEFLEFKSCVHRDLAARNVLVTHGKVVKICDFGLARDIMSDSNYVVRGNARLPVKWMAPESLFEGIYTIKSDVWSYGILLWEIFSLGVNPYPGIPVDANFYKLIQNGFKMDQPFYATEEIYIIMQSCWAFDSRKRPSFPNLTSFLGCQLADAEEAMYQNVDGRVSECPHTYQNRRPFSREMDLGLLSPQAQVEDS
Experimental: as §3

CSF1R [2] = biological target: T1, CSF1R; assay: Z'-Lyte biochemical kinase assay (SelectScreen), CSF1R; conditions: at 50 nM, in duplicate
Experimental: as §3

Row | Compound | inhibition at 0.05 µM (Kit) [%] | inhibition at 0.05 µM (PDGFRB) [%] | inhibition at 0.05 µM (PDGFRA) [%] | inhibition at 0.05 µM (FLT3) [%] | inhibition at 0.05 µM (CSF1R [2]) [%] | also measured
1 | COc1ccc2c(Oc3cccc(C(=O)NCc4ccncc4)c3C)ncnc2c1 [CC 395, 3-(7-methoxyquinazolin-4-yl)oxy-2-methyl-N-(4-pyridylmethyl)benzamide, reference compound] | – | – | – | – | – | IC50 (CSF1R [1]; Table 9): 926 nM; IC50 (M-NFS-60 cells; Table 9): 636 nM
2 | COc1ccc2c(Oc3cccc(C(=O)NCc4ccncc4F)c3C)ncnc2c1 [CC 396, N-[(3-fluoro-4-pyridyl)methyl]-3-(7-methoxyquinazolin-4-yl)oxy-2-methyl-benzamide, reference compound] | – | – | – | – | – | IC50 (CSF1R [1]; Table 9): 600 nM; IC50 (M-NFS-60 cells; Table 9): 415 nM
3 | COc1cc2nccc(Oc3cccc(C(=O)NCc4ccncc4)c3)c2cc1OC [compound 398] | – | – | – | – | – | IC50 (CSF1R [1]; Table 10): 58 nM; fold decrease in IC50 against HEK-CSF1R-STAT5 compared to CC399 (CSF1R [1]; vs CC399): 61 fold; fold decrease in IC50 against HEK-CSF1R-STAT5 compared to CC400 (CSF1R [1]; vs CC400): 39 fold; fold decrease in IC50 against HEK-CSF1R-STAT5 compared to CC401 (CSF1R [1]; vs CC401): 67 fold; IC50 (M-NFS-60 cells; Table 10): 198 nM; fold decrease in IC50 against M-NFS-60 compared to CC399 (M-NFS-60 cells; vs CC399): 26 fold; fold decrease in IC50 against M-NFS-60 compared to CC400 (M-NFS-60 cells; vs CC400): 21 fold; fold decrease in IC50 against M-NFS-60 compared to CC401 (M-NFS-60 cells; vs CC401): 38 fold
4 | Cc1c(Oc2ccnc3cc(Cl)ccc23)cccc1C(=O)NCc1ccncc1 [compound 108, 3-[(7-chloro-4-quinolyl)oxy]-2-methyl-N-(4-pyridylmethyl)benzamide] | – | – | – | – | – | IC50 (CSF1R [1]; Table 9): 29 nM; IC50 (M-NFS-60 cells; Table 9): 58 nM
5 | CNc1ccc2c(Oc3cc(C(=O)NCc4ccncc4)ccc3F)ccnc2c1 [compound 142] | 13 | 9 | 11 | 9 | 61 | –
6 | COc1cc2nccc(Oc3cccc(C(=O)NCC4CCCCC4)c3)c2cc1OC [compound 27] | 26 | 44 | 23 | 39 | 93 | –
7 | COc1ccc2c(Oc3cc(F)cc(C(=O)NCc4ccccc4OC)c3)ccnc2c1 [compound 88] | 30 | 53 | 31 | 29 | 85 | –
8 | Cc1c(Oc2ccnc3cc(N4CCC4)ccc23)cccc1C(=O)NCc1ccncc1 [compound 150] | 3 | 15 | 8 | 12 | 81 | –
9 | O=C(NCc1cccnc1)c1cccc(Oc2ccnc3ccccc23)c1 [compound 74] | 20 | 12 | 7 | 25 | 83 | –
10 | Cc1c(Oc2ccnc3ccccc23)cccc1C(=O)NCc1cccc(F)c1 [compound 103] | 7 | 13 | -5 | 8 | 73 | –
11 | COc1cc2nccc(Oc3cc(C(=O)NCc4cccc(F)c4)ccc3F)c2cc1OC [compound 94] | 32 | 45 | 30 | 27 | 93 | –
12 | COc1cc2nccc(Oc3cccc(C(=O)NCc4cncc(F)c4)c3)c2cc1OC [compound 29] | 17 | 28 | 21 | 2 | 93 | –
13 | O=C(NCc1cccc(F)c1)c1ccc(F)c(Oc2ccnc3ccccc23)c1 [compound 101] | 27 | 40 | 25 | 37 | 81 | –
14 | COc1ccccc1CNC(=O)c1cccc(Oc2ccnc3ccccc23)c1 [compound 7] | 20 | 22 | 16 | 14 | 85 | –
15 | CNc1ccc2c(Oc3cccc(C(=O)NCc4cccc(F)c4)c3C)ccnc2c1 [compound 151] | 4 | 21 | 9 | 0 | 79 | –
16 | COc1ccc2c(Oc3cccc(C(=O)NCc4ccncc4)c3C)ccnc2c1 [Compounds 32] | 2 | 6 | 2 | 8 | 96 | –
17 | O=C(NCC1CCCCC1)c1cccc(Oc2ccnc3ccccc23)c1 [compound 3] | 7 | 27 | 18 | 6 | 71 | –
18 | COc1ccc2c(Oc3cccc(C(=O)NCc4ccccc4)c3)ccnc2c1 [compound 85] | 31 | 28 | 22 | 26 | 85 | –
19 | O=C(NCc1cncc(F)c1)c1cccc(Oc2ccnc3ccccc23)c1 [compound 17] | 14 | 12 | 15 | -4 | 83 | –
20 | CN(C)c1ccc2c(Oc3cccc(C(=O)NCc4ccncc4)c3)ccnc2c1 [compound 140] | 3 | 19 | 11 | 8 | 83 | –
21 | O=C(NCc1ccncc1)c1cccc(Oc2ccnc3ccccc23)c1 [compound 75] | 20 | 10 | -1 | 16 | 79 | –
22 | COc1ccccc1CNC(=O)c1ccc(F)c(Oc2ccnc3ccccc23)c1 [compound 99] | 0 | 20 | 17 | 26 | 75 | –
23 | COc1ccc2c(Oc3cc(C(=O)NCc4ccncc4)ccc3F)ccnc2c1 [compound 98] | 5 | 23 | 6 | 6 | 79 | –
24 | COc1ccccc1CNC(=O)c1cc(F)cc(Oc2ccnc3cc(OC)c(OC)cc23)c1 [compound 89] | 21 | 48 | 49 | 36 | 86 | –
